Experimental data: patent US11414431B2, “Substituted pyrazolo[1,5-a]pyrimidines as TYK2 inhibitors” (Nimbus Lakshmi, Inc., priority 2018, dated 2022)

molecular target: human TYK2 (JH2domain-pseudokinase) (Homo sapiens (Human), UniProt P29597); experiment: TYK2 JH2 Domain Binding Assay (KINOMEscan); settings: 11-point 3-fold dilution, top concentration 30,000 nM, duplicate; read-out: hTYK2_JH2_Binding (Kd; nM)
In short: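 KINOMEscan competition binding: HEK293-expressed NFkB-fused TYK2 JH2 (G556–D888), DNA-tagged, against immobilized ligand beads, 1 h shaking at room temperature, 0.9% DMSO. Bound kinase quantified by qPCR.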

Chain of human TYK2 (JH2domain-pseudokinase) (P29597 556-888): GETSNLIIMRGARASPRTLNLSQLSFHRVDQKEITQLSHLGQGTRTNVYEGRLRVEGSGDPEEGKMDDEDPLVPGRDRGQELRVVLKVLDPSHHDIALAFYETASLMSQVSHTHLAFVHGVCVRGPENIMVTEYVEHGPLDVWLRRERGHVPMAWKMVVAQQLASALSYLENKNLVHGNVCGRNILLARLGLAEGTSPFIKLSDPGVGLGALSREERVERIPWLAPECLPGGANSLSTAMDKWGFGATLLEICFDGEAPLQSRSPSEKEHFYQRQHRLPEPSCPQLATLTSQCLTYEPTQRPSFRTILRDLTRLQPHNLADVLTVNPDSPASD

SMILES | Kd [nM]
CNc1cc(-c2cn([C@H]3COC[C@@H]3O)c3ncccc23)nc2c(C(=O)NC3CC3)cnn12 [Compound I-496] | < 0.2
CNc1cc(-c2cn([C@@H]3COC[C@H]3O)c3ncccc23)nc2c(C(=O)NC3CC3)cnn12 [Compound I-497] | < 0.2
CNc1cc(-c2cn([C@H]3CCOC[C@@H]3O)c3ncccc23)nc2c(C(=O)NC3CC3)cnn12 [Compound I-498] | < 0.2
CNc1cc(-c2cn([C@@H]3CCOC[C@H]3O)c3ncccc23)nc2c(C(=O)NC3CC3)cnn12 [Compound I-499] | < 0.2
CNc1cc(-c2cn([C@H]3COC[C@@H]3O)c3ncccc23)nc2c(C(=O)N[C@@H]3C[C@@H]3F)cnn12 [Compound I-501] | < 0.2
CNc1cc(-c2cn([C@@H]3COC[C@H]3OC)c3ncccc23)nc2c(C(=O)N[C@@H]3C[C@@H]3F)cnn12 [Compound I-503] | < 0.2
CNc1cc(-c2cn([C@H]3COC[C@@H]3OC)c3ncccc23)nc2c(C(=O)N[C@@H]3C[C@@H]3F)cnn12 [Compound I-504] | < 0.2
CNc1cc(-c2cn([C@@H]3CCOC[C@H]3O)c3ncccc23)nc2c(C(=O)N[C@@H]3C[C@@H]3F)cnn12 [Compound I-505] | < 0.2
CNc1cc(-c2cn([C@H]3CCOC[C@@H]3O)c3ncccc23)nc2c(C(=O)N[C@@H]3C[C@@H]3F)cnn12 [Compound I-506] | < 0.2
CNc1cc(-c2cn(C3CN(C)C3)c3ncccc23)nc2c(C(=O)NC3COC[C@H]3O)cnn12 (stereo partly drawn) [Compound I-714] | > 10

Results, then the compound that gave them:

Kd [nM] | SMILES
> 10 | CNc1cc(Nc2cccn(-c3coc(C)n3)c2=O)nc2c(C(=O)N[C@@H]3C[C@@H]3F)cnn12 [Compound I-126]
< 0.2 | CNc1cc(Nc2cccn(-c3ccccn3)c2=O)nc2c(C(=O)N[C@H]3C[C@H]3F)cnn12 [Compound I-127]
< 0.2 | CNc1cc(Nc2cccn([C@H]3C[C@H](F)C3)c2=O)nc2c(C(=O)N[C@@H]3C[C@H]3OC)cnn12 [Compound I-137]
< 0.2 | CNc1cc(Nc2cccn(C3COC3)c2=O)nc2c(C(=O)N[C@H]3CC[C@H]3F)cnn12 [Compound I-161]
< 0.2 | CNc1cc(Nc2cccn(-c3ocnc3C)c2=O)nc2c(C(=O)N[C@@H]3CC[C@H]3F)cnn12 [Compound I-187]
< 0.2 | CO[C@@H]1CCC1NC(=O)c1cnn2c(N)cc(Nc3cccn(-c4ccccn4)c3=O)nc12 (stereo partly drawn) [Compound I-245, 7-Amino-N-((trans-1,2)-2-methoxycyclobutyl)-5-((2-oxo-2H-[1,2′-bipyridin]-3-yl)amino)pyrazolo[1,5-a]pyrimidine-3-carboxamide]
< 0.2 | CNc1cc(Nc2cccn([C@H]3[C@@H]4COC[C@@H]43)c2=O)nc2c(C(=O)N[C@@H]3CCC3(F)F)cnn12 [Compound I-308]
< 0.2 | CNc1cc(Nc2cccn(C(C)C)c2=O)nc2c(C(=O)N[C@H]3CC[C@]3(C)O)cnn12 [Compound I-340]
> 10 | CNc1cc(Nc2ccc(F)n(-c3ccccn3)c2=O)nc2c(C(=O)NC3CC3)cnn12 [Compound I-473]
1 to 10 | CNc1cc(Nc2ccc(F)n(-c3ccccn3)c2=O)nc2c(C(=O)N[C@@H]3C[C@@H]3F)cnn12 [Compound I-474, 5-((6-Fluoro-2-oxo-2H-[1,2′-bipyridin]-3-yl)amino)-N-((1R,2S)-2-fluorocyclopropyl)-7-(methylamino)pyrazolo[1,5-a]pyrimidine-3-carboxamide]
0.2 to 1 | CNc1ccc(-c2cc(NC)n3ncc(C(=O)NC4CC4)c3n2)n2ccnc12 [Compound I-478, N-Cyclopropyl-7-(methylamino)-5-(8-(methylamino)imidazo[1,2-a]pyridin-5-yl)pyrazolo[1,5-a]pyrimidine-3-carboxamide]
> 10 | CNc1ccc(-c2cc(NC)n3ncc(C(=O)N[C@H]4CC[C@@H]4OC)c3n2)n2ccnc12 [Compound I-489]
< 0.2 | CNc1ccc(-c2cc(NC)n3ncc(C(=O)NC4CCC4(F)F)c3n2)n2ccnc12 (stereo not drawn) [Compound I-491]
< 0.2 | CNc1cc(-c2cn(C3COC3)c3ncccc23)nc2c(C(=O)N[C@@H]3CC[C@H]3F)cnn12 [Compound I-509]
